The text below walks through data of BindingDB's records for doi:10.1021/acs.jmedchem.7b01709 (Kobe Gakuin University, 2018).

One assay can be described thus: Inhibition of DRV-resistant protease V32I/L33F/I54M/V82I mutant in HIV1 transfected in 293T cells after 48 hrs by lentiviral vector-based luciferase reporter gene assay. In general terms: In a reporter assay the amount or activity of a reporter protein is the signal.
What is called EC50 is the concentration giving half of the maximal effect. `COc1cccc2cc(C(=O)N[C@H](C(=O)N[C@@H](Cc3ccccc3)[C@H](O)C(=O)N3CSC(C)(C)[C@H]3C(=O)NCc3c(C)cccc3C)[C@H]3CCOC3)oc12` registered a concentration for a half-maximal effect (EC50) of 0.3 nM.

The next assay is described as follows: Inhibition of DRV-resistant protease V32I/L33F/I54M/I84V mutant in HIV1 transfected in 293T cells after 48 hrs by lentiviral vector-based luciferase reporter gene assay.
Take `COc1cccc2cc(C(=O)N[C@H](C(=O)N[C@@H](Cc3ccccc3)[C@H](O)C(=O)N3CSC(C)(C)[C@H]3C(=O)NCc3c(C)cccc3C)[C@H]3CCOC3)oc12`: the EC50 came out at 1.2 nM.

A further assay can be described thus: Inhibition of protease L10F/V32I/M46I/I47V/Q58E/I84V mutant in HIV1 A17 infected in human MT4 cells assessed as reduction in virus-induced cytopathic effect after 5 days by MTT assay. A general note: Protection from cytopathic effect is a common read-out in antiviral testing.
Take `Cc1cccc(C)c1CNC(=O)[C@H]1N(C(=O)[C@@H](O)[C@H](Cc2ccccc2)NC(=O)[C@@H](NC(=O)COc2cccc(N(C)C)c2)[C@H]2CCOC2)CSC1(C)C`: the 50% effective concentration (EC50) is 165 nM.

On to `Cc1ccccc1CNC(=O)[C@H]1N(C(=O)[C@@H](O)[C@H](Cc2ccccc2)NC(=O)[C@@H](NC(=O)c2cnc3ccccc3n2)[C@H]2CCOC2)CSC1(C)C`, for which the EC50 came to 95 nM.

`COc1cccc2cc(C(=O)N[C@H](C(=O)N[C@@H](Cc3ccccc3)[C@H](O)C(=O)N3CSC(C)(C)[C@H]3C(=O)NCc3c(C)cccc3C)[C@H]3CCOC3)oc12`: the EC50 is 25 nM.

Take `Cc1cccc(C)c1CNC(=O)[C@H]1N(C(=O)[C@@H](O)[C@H](Cc2ccccc2)NC(=O)[C@@H](NC(=O)c2cc3ccccc3o2)C(C)C)CSC1(C)C`: the EC50 worked out at 1100 nM.

Regarding `COc1cccc2cc(C(=O)N[C@H](C(=O)N[C@@H](Cc3ccccc3)[C@H](O)C(=O)N3CSC(C)(C)[C@H]3C(=O)NCc3c(C)cccc3C)C(C)C)oc12`, the 50% effective concentration (EC50) was 309 nM.

For `Cc1ccccc1CNC(=O)[C@H]1N(C(=O)[C@@H](O)[C@H](Cc2ccccc2)NC(=O)c2cccc(O)c2C)CSC1(C)C` [AG1776], the half-maximal effective concentration (EC50) is 2730 nM.

For `Cc1cccc(C)c1CNC(=O)[C@H]1N(C(=O)[C@@H](O)[C@H](Cc2ccccc2)NC(=O)[C@@H](NC(=O)c2cc3ccccc3o2)[C@H]2CCOC2)CSC1(C)C`, the EC50 came to 678 nM.

Consider `Cc1cccc(C)c1CNC(=O)[C@H]1N(C(=O)[C@@H](O)[C@H](Cc2ccccc2)NC(=O)[C@@H](NC(=O)COc2cccc(Nc3ccccc3)c2)[C@H]2CCOC2)CSC1(C)C`, for which the concentration for a half-maximal effect (EC50) was 226 nM.

Turning to `Cc1cccc(C)c1CNC(=O)[C@H]1N(C(=O)[C@@H](O)[C@H](Cc2ccccc2)NC(=O)[C@H](CC(N)=O)NC(=O)c2cc3ccccc3o2)CSC1(C)C`, the half-maximal effective concentration (EC50) amounted to 61 nM.

Turning to `COc1cccc2cc(C(=O)N[C@@H](CC(N)=O)C(=O)N[C@@H](Cc3ccccc3)[C@H](O)C(=O)N3CSC(C)(C)[C@H]3C(=O)NCc3c(C)cccc3C)oc12`, the EC50 stood at 84 nM.
